Results taken from patent US8946266B2, “Substituted triazole and imidazole derivatives as gamma secretase modulators” (Janssen Pharmaceuticals, Inc., priority 2009, dated 2015).
Like-named read-outs stand apart in the source and are kept apart here.

Key:
[1] = system: Aβtotal; test: In vivo efficacy, Method 2: brain soluble Aβtotal lowering 4 h after a single oral dose, ELISA (Table 4b); parameters: species or system mouse; conditions: dose 30 mg/kg oral dosing
Text: (§1) To determine whether acute administration of an Aβ42 lowering agent would reduce Aβ42 levels in vivo, non-transgenic rodents, e.g. mice or rats were used. Animals treated with the Aβ42 lowering agent were examined and compared to those untreated or treated with vehicle and brain levels of soluble Aβ42 and total Aβ were quantitated by standard techniques, for example, using ELISA. Treatment periods varied from hours (h) to days and were adjusted based on the results of the Aβ42 lowering once a time course of onset of effect could be established.
(§2) A typical protocol for measuring Aβ42 lowering in vivo is shown but it is only one of many variations that could be used to optimize the levels of detectable Aβ. For example, Aβ42 lowering compounds were formulated in 20% of Captisol® (a sulfobutyl ether of β-cyclodextrin) in water or 20% hydroxypropyl β cyclodextrin. The Aβ42 lowering agents were administered as a single oral dose or by any acceptable route of administration to overnight fasted animals. After 4 h, the animals were sacrificed and Aβ42 levels were analysed.
(§3) Blood was collected by decapitation and exsanguinations in EDTA-treated collection tubes. Blood was centrifuged at 1900 g for 10 minutes (min) at 4° C. and the plasma recovered and flash frozen for later analysis. The brain was removed from the cranium and hindbrain. The cerebellum was removed and the left and right hemisphere were separated. The left hemisphere was stored at −18° C. for quantitative analysis of test compound levels. The right hemisphere was rinsed with phosphate-buffered saline (PBS) buffer and immediately frozen on dry ice and stored at −80° C. until homogenization for biochemical assays.
(§4) Mouse brains from non-transgenic animals were resuspended in 8 volumes of 0.4% DEA (diethylamine)/50 mM NaCl containing protease inhibitors (Roche-11873580001 or 04693159001) per gram of tissue, e.g. for 0.158 g brain, add 1.264 ml of 0.4% DEA. All samples were homogenized in the FastPrep-24 system (MP Biomedicals) using lysing matrix D (MPBio #6913-100) at 6 m/s for 20 seconds. Homogenates were centrifuged at 221.300×g for 50 min. The resulting high speed supernatants were then transferred to fresh eppendorf tubes. Nine parts of supernatant were neutralized with 1 part 0.5 M Tris-HCl pH 6.8 and used to quantify Aβtotal and Aβ42.
(§5) To quantify the amount of Aβtotal and Aβ42 in the soluble fraction of the brain homogenates, Enzyme-Linked-Immunosorbent-Assays were used. Briefly, the standards (a dilution of synthetic Aβ1-40 and Aβ1-42, Bachem) were prepared in 1.5 ml Eppendorf tube in Ultraculture, with final concentrations ranging from 10000 to 0.3 pg/ml. The samples and standards were co-incubated with HRPO-labelled N-terminal antibody for Aβ42 detection and with the biotinylated mid-domain antibody 4G8 for Aβtotal detection. 50 μl of conjugate/sample or conjugate/standards mixtures were then added to the antibody-coated plate (the capture antibodies selectively recognize the C-terminal end of Aβ42, antibody JRF/cAβ42/26, for Aβ42 detection and the N-terminus of Aβ, antibody JRF/rAβ/2, for Aβtotal detection). The plate was allowed to incubate overnight at 4° C. in order to allow formation of the antibody-amyloid complex. Following this incubation and subsequent wash steps the ELISA for Aβ42 quantification was finished by addition of Quanta Blu fluorogenic peroxidase substrate according to the manufacturer's instructions (Pierce Corp., Rockford, Ill.). A reading was performed after 10 to 15 min (excitation 320/emission 420).
For Aβtotal detection, a Streptavidine-Peroxidase-Conjugate was added, followed 60 min later by an additional wash step and addition of Quanta Blu fluorogenic peroxidase substrate according to the manufacturer's instructions (Pierce Corp., Rockford, Ill.). A reading was performed after 10 to 15 min (excitation 320 nm/emission 420 nm).
(§6) The results are shown in Table 4b (dose 30 mg/kg oral dosing): […]

[2] = system: Aβtotal; test: γ-secretase-modulating activity, Method 2: Aβtotal Alphalisa in supernatant of SKNBE2 cells carrying APP 695-wild type (Table 3b); format: cell-based; conditions: overnight, read-out: IC50 Aβtot
Method in brief: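 SKNBE2 cells expressing wild-type APP 695 were incubated overnight at 37 °C, 5% CO2 with test compound at a range of concentrations. Aβtotal in supernatant was measured by AlphaLISA sandwich (N-terminal JRF/AβN/25 acceptor, biotinylated mid-region 4G8 donor); IC50 from 4-parameter fit of percent control versus log concentration.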

[3] = system: Aβ42; test: In vivo efficacy, Method 2: brain soluble Aβ42 lowering 4 h after a single oral dose, ELISA (Table 4b); parameters: species or system mouse; conditions: dose 30 mg/kg oral dosing
Text: as §1, §2, §3, §4, §5
In this model at least 20% Aβ42 lowering compared to untreated animals would be advantageous.
as §6

[4] = system: Aβ42; test: γ-secretase-modulating activity, Method 2: Aβ42 Alphalisa in supernatant of SKNBE2 cells carrying APP 695-wild type (Table 3b); format: cell-based; conditions: overnight
Method in brief: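 SKNBE2 cells expressing wild-type APP695 were incubated overnight at 37° C. with test compound. Secreted Aβ42 was then measured by AlphaLISA, using a C-terminal Aβ42 antibody paired with an N-terminal Aβ antibody. IC50 came from a 4-parameter fit of percent of compound-free control.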

SMILES	Aβtotal (% Ctrl) _Mean [1]	IC50 [2]	Aβ42 (% Ctrl) _Mean [3]	IC50 [4]	Aβtotal (% Ctrl) _Mean ([1]; 30 mg/kg)	Aβ42 (% Ctrl) _Mean ([3]; 30 mg/kg)	IC50 ([2]; Homo sapiens)	IC50 ([4]; Homo sapiens)
COc1nc(-c2nc(Nc3cc(OC(F)(F)F)ccc3F)n(C)n2)ccc1-n1cnc(C)c1 [Compound 184]	15 % Ctrl	> 15000 nM	69 % Ctrl	13 nM	–	–	–	–
COc1nc(-c2nc3n(n2)CCCC3c2cc(C(F)(F)F)ccc2C)ccc1-n1cnc(C)c1 (centres unmarked) [Compound 343]	18 % Ctrl	> 10000 nM	64 % Ctrl	15 nM	–	–	–	–
COc1cc(-c2nc(Nc3cc(C(F)(F)F)cc(OC)c3F)n(C)n2)ccc1-n1cnc(C)c1 [Compound 203]	6 % Ctrl	> 10000 nM	54 % Ctrl	10 nM	–	–	–	–
COCc1ccccc1Nc1nc(-c2ccc(-n3cnc(C)c3)c(OC)c2)nn1C.Cl [Compound 204]	2 % Ctrl	> 10000 nM	41 % Ctrl	110 nM	–	–	–	–
COc1ccc(C)c(Nc2nc(-c3ccc(-n4cnc(C)c4)c(OC)c3)nn2C)c1 [Compound 199]	5 % Ctrl	> 10000 nM	39 % Ctrl	16 nM	–	–	–	–
COc1cc(-c2nc(Nc3cccc(F)c3Cl)n(C)n2)ccc1-n1cnc(C)c1 [Compound 114]	9 % Ctrl	> 10000 nM	53 % Ctrl	56 nM	–	–	–	–
Cc1cn(-c2ccc(-c3nc(Nc4cc(C(F)(F)F)ccc4F)n(C)n3)cc2C#N)cn1 [Compound 322]	−4 % Ctrl	> 15000 nM	−5 % Ctrl	36 nM	–	–	–	–
COc1cc(-c2nc(Nc3cc(C(F)(F)F)cc(F)c3F)n(C)n2)ccc1-n1cnc(C)c1 [Compound 140]	8 % Ctrl	> 10000 nM	33 % Ctrl	20 nM	–	–	–	–
COc1cc(-c2nc3n(n2)CCC[C@@H]3c2ccccc2C(F)(F)F)ccc1-n1cnc(C)c1 [Compound 260]	−9 % Ctrl	> 15000 nM	−1 % Ctrl	457 nM	–	–	–	–
COc1nc(-c2nc(N3CCCC(c4ccccc4)C3)n(C(C)C)n2)ccc1-n1cnc(C)c1.Cl (racemic) [Compound 80]	−19 % Ctrl	10000 nM	−20 % Ctrl	56 nM	–	–	–	–
COc1cc(-c2nc3n(n2)CCC[C@H]3c2ccccc2C(F)(F)F)ccc1-n1cnc(C)c1 [Compound 261]	6 % Ctrl	> 15000 nM	46 % Ctrl	24 nM	–	–	–	–
COc1cc(Nc2nc(-c3ccc(-n4cnc(C)c4)c(OC)c3)nn2C)cc(C(F)(F)F)c1 [Compound 213]	7 % Ctrl	8910 nM	9 % Ctrl	5 nM	–	–	–	–
COc1nc(-c2nc(N(C)c3cc(C(F)(F)F)ccc3F)n(C)n2)ccc1-n1cnc(C)c1 [Compound 337]	3 % Ctrl	> 10000 nM	30 % Ctrl	263 nM	–	–	–	–
COc1cc(-c2nc(Nc3cc(Cl)ccc3Cl)n(C)n2)ccc1-n1cnc(C)c1 [Compound 111]	15 % Ctrl	> 10000 nM	33 % Ctrl	13 nM	–	–	–	–
COc1nc(-c2nc(Nc3cccc(F)c3C(F)(F)F)n(C)n2)ccc1-n1cnc(C)c1 [Compound 138]	17 % Ctrl	> 10000 nM	46 % Ctrl	50 nM	–	–	–	–
COc1cc(-c2nc(Nc3ccccc3C(C)C)n(C)n2)ccc1-n1cnc(C)c1 [Compound 99]	−2 % Ctrl	> 10000 nM	58 % Ctrl	19 nM	–	–	–	–
COc1cc(-c2nc(Nc3cccc(Cl)c3C)n(C)n2)ccc1-n1cnc(C)c1 [Compound 129]	9 % Ctrl	> 10000 nM	56 % Ctrl	25 nM	–	–	–	–

SMILES	Aβtotal (% Ctrl) _Mean [1]	IC50 [2]	Aβ42 (% Ctrl) _Mean [3]	IC50 [4]	Aβtotal (% Ctrl) _Mean ([1]; 30 mg/kg)	Aβ42 (% Ctrl) _Mean ([3]; 30 mg/kg)	IC50 ([2]; Homo sapiens)	IC50 ([4]; Homo sapiens)
COc1cc(-c2nc(Nc3cc(C(F)(F)F)cc(C(F)(F)F)c3)n(C)n2)ccc1-n1cnc(C)c1 [Compound 150]	−8 % Ctrl	> 10000 nM	−6 % Ctrl	13 nM	–	–	–	–
COc1nc(-c2nc(Nc3cc(Cl)ccc3F)n(C)n2)ccc1-n1cnc(C)c1 [Compound 117]	17 % Ctrl	> 10000 nM	44 % Ctrl	60 nM	–	–	–	–
COc1cc(-c2nc(Nc3cc(Cl)ccc3F)n(C)n2)ccc1-n1cnc(C)c1 [Compound 123]	31 % Ctrl	> 10000 nM	36 % Ctrl	58 nM	–	–	–	–
COc1cc(-c2nc(Nc3cccc(C)c3F)n(C)n2)ccc1-n1cnc(C)c1 [Compound 161]	8 % Ctrl	> 10000 nM	45 % Ctrl	78 nM	–	–	–	–
COc1cc(-c2nc3n(n2)CCOC3c2ccccc2C(F)(F)F)ccc1-n1cnc(C)c1 (centres unmarked) [Compound 306]	–	> 10000 nM	–	71 nM	−2 % Ctrl	22 % Ctrl	–	–
COc1nc(-c2nc(Nc3cccc(C(F)(F)F)c3F)n(C)n2)ccc1-n1cnc(C)c1 [Compound 167]	−1 % Ctrl	> 15000 nM	52 % Ctrl	38 nM	–	–	–	–
COc1nc(-c2nc3n(n2)CCC[C@H]3c2ccc(F)cc2C)ccc1-n1cnc(C)c1 [Compound 361]	−8 % Ctrl	–	32 % Ctrl	42 nM	–	–	–	–
CCOc1cc(C)c(Nc2nc(-c3ccc(-n4cnc(C)c4)c(OC)c3)nn2C)cc1C(C)C [Compound 328]	–	145 nM	–	7 nM	–	–	–	–
COc1cc(-c2nc(Nc3cc(C#N)ccc3F)n(C)n2)ccc1-n1cnc(C)c1 [Compound 226]	–	> 10000 nM	–	417 nM	–	–	–	–
COc1cc(-c2nc(Nc3cc(Cl)ccc3C)n(C)n2)ccc1-n1cnc(C)c1 [Compound 174]	–	7410 nM	–	20 nM	–	–	–	–
COc1cc(-c2nc3n(n2)CCCC3(CO)c2ccc(F)cc2C)ccc1-n1cnc(C)c1 (centres unmarked) [Compound 334]	–	–	–	–	–	–	> 10000 nM	263 nM
COc1cc(-c2nc3n(n2)CCOC3c2cccc(F)c2C)ccc1-n1cnc(C)c1 (centres unmarked) [Compound 345]	–	> 10000 nM	–	107 nM	–	–	–	–
COc1cc(-c2nc3n(n2)CCCC3c2ccc(F)cc2F)ccc1-n1cnc(C)c1 (centres unmarked) [Compound 259]	–	> 10000 nM	–	158 nM	–	–	–	–
COc1cc(F)c(F)c(Nc2nc(-c3ccc(-n4cnc(C)c4)c(OC)c3)nn2C)c1 [Compound 216]	–	> 10000 nM	–	76 nM	–	–	–	–
COc1cc(-c2n[nH]c(C(CCCCCl)c3ccccc3C(F)(F)F)n2)ccc1-n1cnc(C)c1 (centres unmarked) [Compound 70]	–	> 10000 nM	–	309 nM	–	–	–	–
COc1cc(-c2nc(CNc3cccc(C(F)(F)F)c3)n(C)n2)ccc1-n1cnc(C)c1 [Compound 311]	–	7410 nM	–	186 nM	–	–	–	–
